Source: patent publication US9175266B2, “Enhancement of natural killer (NK) cell proliferation and activity” (Gamida Cell Ltd., priority 2012, dated 2015)
“Also recorded” adds a separate entry of the source.

Assays:
[1] = test system: human peripheral blood NK cells; assay: Ex-vivo expansion of T-cell depleted peripheral blood NK cells in culture with cytokines; format: cell-based
Procedure: For depletion procedure, total nuclear cells from umbilical cord blood (CB), bone marrow (BM) or peripheral blood (PB) cells were layered on a Ficoll-Hypaque gradient (1.077 g/mL; Sigma), and centrifuged at 800×g for 30 minutes for separation of the mononuclear cells. The cells in the interface layer were collected and washed three times in phosphate-buffered saline (PBS) (Biological Industries, Israel) containing 0.5% HSA. Optionally, cells are not separated on the Ficoll-Hypaque gradient but washed three times in phosphate-buffered saline (PBS) (Biological Industries) containing 0.5% HSA (“total mononuclear fraction”). CD3 cells were depleted using the CD3 cell isolation kit (Miltenyi Biotec Bergisch, Gladbach, Germany) and the entire CD3 negative cell fraction was cultured. […] After negative depletion the cells were counted and characterized by FACS analysis. […] To estimate number of cells in culture, cell samples were counted following staining with trypan blue. […] In order to calculate the number of NK cells on day 0, the total number of cells seeded on day 0 was multiplied by the percent of CD56+/CD3− cells measured by the FACS on day 0. […] In order to determine the number of NK cells in culture, the total number of cells in culture was multiplied by the percent of CD56+/CD3− cells measured with the FACS on days 14 or 21. […]

[2] = test system: CD3+CD56− cells; assay: T-cell fraction (CD3+CD56-) in cultures of T-cell depleted peripheral blood NK cells, by FACS; format: cell-based, human; conditions: 21 day cultures; SR1 10 to 1000 nM vs cytokines only (SR1 0); FIG. 2
Procedure: For depletion procedure, total nuclear cells from umbilical cord blood (CB), bone marrow (BM) or peripheral blood (PB) cells were layered on a Ficoll-Hypaque gradient (1.077 g/mL; Sigma), and centrifuged at 800×g for 30 minutes for separation of the mononuclear cells. The cells in the interface layer were collected and washed three times in phosphate-buffered saline (PBS) (Biological Industries, Israel) containing 0.5% HSA. Optionally, cells are not separated on the Ficoll-Hypaque gradient but washed three times in phosphate-buffered saline (PBS) (Biological Industries) containing 0.5% HSA (“total mononuclear fraction”). CD3 cells were depleted using the CD3 cell isolation kit (Miltenyi Biotec Bergisch, Gladbach, Germany) and the entire CD3 negative cell fraction was cultured. […] After negative depletion the cells were counted and characterized by FACS analysis. […] To estimate number of cells in culture, cell samples were counted following staining with trypan blue. […] The cells were then washed in the above buffer and analyzed using a FACScalibur® flow cytometer (Becton Dickinson, San Jose, Calif., USA). […] Emission of 10^4 cells was measured using logarithmic amplification, and analyzed using the CellQuest software (Becton Dickinson). Cells stained with FITC, PE and APC-conjugated isotype control antibodies were used to determine background fluorescence.

[3] = test system: CD62L; assay: CD62L expression on NK cell surface, by FACS; format: cell-based, human; conditions: PB derived NK cells; SR1 10-1000 nM, 14 and 21 days, vs cytokines only; FIG. 3
Text: (§1) For FACS analysis cells were stained with the following fluorescent antibodies: CD15 FITC, Cat. No. 332778, CD14 FITC, Cat. No. 345784, CD3 APC, Cat. No. 345767, all from Becton Dickinson (San Jose, Calif., USA), CD62L PE, Cat. No. 304806 from BioLegend (San Diego, Calif., USA), CD56 FITC, Cat. No. 11-0569-42 from eBioscience (San Diego, Calif., USA) and CD45 PE, Cat. No. R7807 from Dako (Glostrup, Denmark) and anti-CD200R and anti-PD-1 fluorescent antibodies. The cells were washed with a PBS solution containing 1% BSA, and stained (at 4° C. for 30 min) with fluorescein isothiocyanate (FITC)- or phycoerythrin (PE)-conjugated antibodies or allophycocyanin (APC). The cells were then washed in the above buffer and analyzed using a FACScalibur® flow cytometer (Becton Dickinson, San Jose, Calif., USA). The cells were passed at a rate of up to 1000 cells/second, using a 488 nm or 661 nm argon laser beam as the light source for excitation. Emission of 10^4 cells was measured using logarithmic amplification, and analyzed using the CellQuest software (Becton Dickinson). Cells stained with FITC, PE and APC-conjugated isotype control antibodies were used to determine background fluorescence. […] NK cells were stained with specific antibodies for the specified surface markers (CD62L, CD200R, PD-1) after 3 weeks incubation with SR1, and then monitored by FACS.

[4] = test system: CD200R; assay: CD200R expression on NK cell surface, by FACS; format: cell-based, human; conditions: PB derived NK cells; SR1 10-1000 nM, 14 and 21 days, vs cytokines only; FIG. 4A
Text: as §1

[5] = test system: PD-1; assay: PD-1 expression on NK cell surface, by FACS; format: cell-based, human; conditions: PB derived NK cells; SR1 10-1000 nM, 14 and 21 days, vs cytokines only; FIG. 4B
Text: as §1

[6] = test system: human NK cells; assay: In-vivo homing and engraftment of cultured, CFSE-stained human NK cells in spleen of irradiated NSG mice; parameters: species or system NOD.Cg-Prkdcscid Il2rgtm1Wjl/SzJ (NSG) mice; conditions: 15×10^6 NK cells cultured 2-3 weeks with SR1 vs without; irradiated (350 Rad) NSG mice; 4 days post infusion; FIG. 5
Procedure: NK cells were expanded with or without 1000 nM SR1, as described above. After 2 weeks in culture, cells were stained with CFSE and similar numbers (15×10^6) of cells were infused into irradiated (350 Rad) NSG mice. Mice were sacrificed 4-days post infusion. Spleens were analyzed for the homing and engraftment of human NK cells based on the CFSE fluorescence, in order to distinguish them from endogenous cells. Engraftment is expressed as the % of cells staining with CFSE. Irradiated (350 Rad) NOD.Cg-Prkdcscid Il2rgtm1Wjl/SzJ (NSG) mice received 15×10^6 cells from human peripheral blood NK (T-cell depleted) cultures maintained for up to 3 weeks with SR1 or without (SR1 0) SR1. Prior to infusion NK cells were stained with CFSE. Upon sacrifice of the mice 4 days post infusion, samples of spleen were evaluated by FACS for the percent of cells that are stained with CFSE.

Q: What does the source list for `CC(C)n1cnc2c(NCCc3ccc(O)cc3)nc(-c3csc4ccccc34)nc21` [SR1, 4-(2-(2-(benzo[b]thiophen-3-yl)-9-isopropyl-9H-purin-6-ylamino)ethyl)phenol]?
A: cells in culture that were NK (CD56+CD3-) cells ([1]; CD3+ or CD3+/CD19+ depleted peripheral blood mononuclear cells (2-10% NK at seeding), 2-3 weeks in culture with SR1): more than 90%; NK expansion (fold increase relative to day 0) ([1]; day 21, SR1 10-1000 nM with cytokines (IL-2, IL-15) vs cytokines only (SR1 0), FIG. 1): greatly increased expansion; also recorded: significantly higher; percentages of CD3+CD56− cells (T-cell fraction) [2]: less prominent than in control; also recorded: lower than in control cultures; expression of CD62L [3]: dramatically enhanced expression; also recorded: strongly enhanced expression; expression of CD200R [4]: reduced expression; expression of PD-1 [5]: reduced expression; homing and engraftment into spleen (% of cells staining with CFSE) [6]: significantly higher; also recorded: increased localization and engraftment
